# Measured values from patent publication US20230293539A1, “MLL1-WDR5 PROTEIN-PROTEIN INTERACTION INHIBITOR COMPOUNDS AND USES THEREOF” (HUYABIO International, LLC, priority 2022, published 2023).
# What was measured:
# [1] = Compound formulation stability assay; type: physicochemical; conditions: 10 mg/mL in 10% DMSO/10% solutol HS 15/80% water, 2-8° C.
# Protocol: Compound formulation stability assay: Test articles were formulated in 10% DMSO/10% solutol HS 15/80% water and stored at 4° C. Formulated compounds were analyzed by a HPLC-UV method for actual concentrations and % remaining on Day 1, 4 and 7 after formulation to determine the stability of the formulated test article. The HPLC system was equipped with Shimadzu LC-20 high-performance liquid chromatograph, SIL-20AC auto sampler, LC-20AB pump and SPD-M20A detector. A Waters XBridge C18 (4.6*100 mm) column was applied for the separation. […]
# MV 411 cells = test: Cell Viability Assay (CellTiter-Glo); type: cell-based; conditions: Homo sapiens, MV4-11, 72 hours, read-out: IC50 (anti-proliferative activity against leukemia cells)
# Protocol: Cell lines and maintenance: All cell lines (MV 411) used for in vitro and in vivo studies were supplied as part of Wuxi AppTech cell bank. Cell lines were maintained in a medium supplemented with 10% heat inactivated fetal bovine serum at 37° C., in an atmosphere of 5% CO2, in air. The tumor cells were routinely subcultured twice weekly. The cells growing in an exponential growth phase were used for the in vitro cell potency and in vivo efficacy studies.
# EXAMPLE 1: Cell Viability Assay: For cell cytotoxicity assays, 2000 cells/well were plated in 384-well plates. Twenty four hours after plating, cells were treated with inhibitors at the indicated compound concentrations. On Day 3 (72 hours), cells were lysed with CellTiter-Glo® Luminescent Cell Viability Assay reagent (Promega) and luminescence was read using the EnVision Multi-plate reader. To calculate IC50, a dose-response curve is generated using a nonlinear regression model with a sigmoidal dose response. The formula of surviving rate is shown below. IC50 values were automatically generated by GraphPad Prism 8.0. See FIG. 1A and FIG. 1B and Tables 3 and 4.
# Liver S9 stability assay [2] = type: in vitro ADME, human
# Protocol: (§1) Liver S9 stability assay: Test compounds (1 μM) and positive control were incubated with 5 mM GSH and liver S9 (1 mg protein/ml) from multiple species (including human, monkey, dog, rat and mouse) at 37° C. at 0, 10, 30, and 60 minutes in duplicate. After adding the stop solution, 100 μL of supernatant were analyzed by LC-MS/MS. The % remaining of test compound, T1/2 (min), and CLint (μL/min/mg) were calculated and were reported.
# Liver S9 stability assay [3] = type: in vitro ADME, rat
# Protocol: as §1
# [4] = WBS (whole blood stability) assay; type: in vitro ADME; conditions: for % Remaining after 60 min incubation: 2 μM, 37° C.
# Protocol: WBS (whole blood stability) assay: The blood samples were collected freshly from multiple species including human, monkey, dog, rat and mouse. 2 μM of test compound and positive control were incubated with the whole blood at 37° C. at 0, 10, 30, 60, and 120 minutes in duplicate. After adding the stop solution, 200 μL of supernatant were analyzed by LC-MS/MS. The % remaining of test compound and T1/2 (min) were calculated and reported.
# WDR5 = WDR5 (Homo sapiens, UniProt P61964); test: WDR5 TR-FRET Assay; type: binding; conditions: 5 nM WDR5 protein, 10 nM peptide, read-out: IC50 (MLL1-WDR5 PPI inhibitory activity)
# Protocol: WDR5 TR-FRET Assay Procedure: Stock compounds were transferred to the assay plate by Echo Liquid Handler. Reactions were performed in the assay buffer (1×PBS, 300 mM NaCl, 0.5 mM TCEP, 0.1% CHAPS) containing 5 nM WDR5 protein, 10 nM peptide (Ac-ARTEVHLRKS-[Ahx-Ahx][C]-Alexa Fluor 488-NH2) and 0.25 nM Tb-anti His antibody (Tb-Ab) in 384-well white plate (PerkinElmer) with a final volume of 20 μl. Compounds were incubated with WDR5 protein for 30 min at room temperature. Plates were covered, protected from light and incubated for 60 min. at room temperature after adding the peptide and Tb-Ab. EnVision Multimode Plate Reader (PerkinElmer) was used for the TR-FRET assay with excitation wavelength at 340 nm and emission wavelength at 495 and 520 nm. The ratio of the 520/495 nm wavelengths were used to assess the degree of the FRET signal. IC50 was calculated by fitting the inhibition data using XLfit software to sigmoidal dose-response model.
# Mouse PK (oral) = type: in vivo, C57/B16 mice; conditions: for Cmax: plasma; for AUC(0-t) / half-life: C57/B16, plasma
# Protocol: Mouse PK: Animals were dosed with a single intravenous bolus or oral gavage administration in naïve C57/B16 mice (Beijing Vital River Laboratory Animal Co., LTD). Blood samples were collected at the respective sampling time points. The quantification of compound concentrations in mouse or rat plasma was quantified using LC-MS/MS method. Plasma concentration versus time data was analyzed by non-compartmental mode approaches using the WinNonlin software program (version 6.3 or above, Pharsight). Pharmacokinetic parameters, including C0 (initial concentration after drug administration), […], Vdss (volume of distribution), Cmax (maximum peak concentration of the drug), Tmax (time required to reach Cmax) T1/2 (time required for drug concentration to decrease by 50% after administration), AUC0-last (area under the concentration-time curve from dosing time t=0 to the time of the last measured concentration), AUC0-inf (total drug exposure across time), MRT0-last (mean residence time from dosing time t=0 to the time of the last measured concentration), MRT0-inf f (mean residence time of total drug exposure), bioavailability (%) (the percentage (or the fraction F) of an administered drug dose that reaches the systemic circulation) for IV and PO groups were calculated. See Table 7 and FIGS. 6A, 6B, 6C and 6D.
# Liver S9 stability assay [5] = type: in vitro ADME, mouse
# Protocol: as §1
# Liver S9 stability assay [6] = type: in vitro ADME, dog
# Protocol: as §1
structure (smiles),measurement,setting,value
"CCN(CC)C(=O)c1cn(-c2cc(NC(=O)c3cc(N)c(F)c(C)c3Cl)c(N3C[C@@H](C)N(C)[C@@H](C)C3)cc2F)nn1 [HYBI-082, 1-(5-(5-amino-2-chloro-4-fluoro-3-methylbenzamido)-2-fluoro-4-((3S,5R)-3,4,5-trimethylpiperazin-1-yl)phenyl)-N,N-diethyl-1H-1,2,3-triazole-4-carboxamide]",Accuracy % (Day 0),[1]; Day 0,96.3%
same,Formulation Appearance (Day 0),[1]; Day 0,clear
same,Remaining % (Day 0),[1]; Day 0,100%
same,Accuracy % (Day 1),[1]; Day 1,96.0%
same,Formulation Appearance (Day 1),[1]; Day 1,clear
same,Remaining % (Day 1),[1]; Day 1,100%
same,Accuracy % (Day 4),[1]; Day 4,99.3%
same,Formulation Appearance (Day 4),[1]; Day 4,clear
same,Remaining % (Day 4),[1]; Day 4,103%
same,Accuracy % (Day 7),[1]; Day 7,98.6%
same,Formulation Appearance (Day 7),[1]; Day 7,clear
same,Remaining % (Day 7),[1]; Day 7,102%
same,IC50,MV 411 cells,7.68 µM
same,half-life at 1 μM,Liver S9 stability assay [2]; Human liver S9,> 2.42 h
same,microsomal CLint at 1 μM,Liver S9 stability assay [2]; Human liver S9,< 4.8 µL/min/mg
same,% Remaining after 60 min incubation,"Liver S9 stability assay [2]; Human liver S9, 1 μM, 5 mM GSH, 37° C.",107%
same,half-life at 1 μM,Liver S9 stability assay [3]; Rat liver S9,> 2.42 h
same,microsomal CLint at 1 μM,Liver S9 stability assay [3]; Rat liver S9,< 4.8 µL/min/mg
same,% Remaining after 60 min incubation,"Liver S9 stability assay [3]; Rat liver S9, 1 μM, 5 mM GSH, 37° C.",98.3%
same,half-life at 2 μM,[4]; Dog whole blood,> 2.41 h
same,% Remaining after 60 min incubation,[4]; Dog whole blood,90.6%
same,half-life at 2 μM,[4]; Human whole blood,11.9 h
same,% Remaining after 60 min incubation,[4]; Human whole blood,100%
same,half-life at 2 μM,[4]; Mouse whole blood,> 2.41 h
same,% Remaining after 60 min incubation,[4]; Mouse whole blood,82.4%
same,half-life at 2 μM,[4]; Rat whole blood,> 2.41 h
same,% Remaining after 60 min incubation,[4]; Rat whole blood,99.6%
same,IC50,WDR5,0.00532 µM
same,F,Mouse PK (oral); 10 mpk,23.3%
same,F,Mouse PK (oral); 30 mpk,27.5%
same,Cmax,"Mouse PK (oral); C57/B16, 10 mg/kg, 10 mpk",1.67 µM
same,Cmax,"Mouse PK (oral); C57/B16, 30 mg/kg, 30 mpk",4.53 µM
same,AUC(0-t),"Mouse PK (oral); 10 mg/kg, 10 mpk",2.22 µM·h
same,half-life,"Mouse PK (oral); 10 mg/kg, 10 mpk",0.8 h
same,AUC(0-t),"Mouse PK (oral); 30 mg/kg, 30 mpk",7.61 µM·h
same,half-life,"Mouse PK (oral); 30 mg/kg, 30 mpk",2 h
same,half-life at 1 μM,Liver S9 stability assay [5]; Mouse liver S9,> 2.42 h
same,microsomal CLint at 1 μM,Liver S9 stability assay [5]; Mouse liver S9,< 4.8 µL/min/mg
same,% Remaining after 60 min incubation,"Liver S9 stability assay [5]; Mouse liver S9, 1 μM, 5 mM GSH, 37° C.",87.7%
same,half-life at 1 μM,Liver S9 stability assay [6]; Dog liver S9,> 2.42 h
same,microsomal CLint at 1 μM,Liver S9 stability assay [6]; Dog liver S9,< 4.8 µL/min/mg
same,% Remaining after 60 min incubation,"Liver S9 stability assay [6]; Dog liver S9, 1 μM, 5 mM GSH, 37° C.",87.3%
